# Measurements from article PMC9961652 (International Journal of Molecular Sciences, 2023).
# Entries after “also recorded” stand apart in the source; their conditions may differ.
# Legend:
# washed human platelets [1] = experiment: ATP secretion (Chrono-lume) after thrombin stimulation; type: cell-based; details: 10 µM S-G04 or 20 µM R-G04; thrombin 0.1 U/mL
# Procedure: (§1) (A–D) Washed human platelets were pre-incubated with 10 µM S-G04 or 20 µM R-G04 for 2 min before being stimulated with Arachidonic Acid (AA), U46619, ADP, or Thrombin. The % platelet aggregation was measured 5 min after agonist stimulation. (E) Washed human platelets were pre-incubated with 10 µM S-G04 or 20 µM R-G04 for 2 min and with Chrono-lume® for 30 s at 37 °C before being stimulated with 0.1 U/mL Thrombin. […] TxB2 formation was determined using a TxB2 ELISA kit. The differences among DMSO, R-G04, and S-G04 were analyzed using t-test, and the results are shown as means ± SDs of three independent experiments. (* p < 0.05, ** p < 0.01, *** p < 0.001, and **** p < 0.0001).
# The in vitro antiplatelet activity of the compounds was assayed on washed human platelets using light transmission aggregometry. Platelet aggregation was performed using a 4-channel Lumi-aggregometer (Chronolog, PA, USA) at 37 °C and stirring speed of 900 rpm. […] The reactions were allowed to proceed for at least 4 min, and the results of platelet aggregation and ATP secretion were determined using Aggrolink software. Platelet aggregation was expressed as the maximum change in the light transmission, where the 100% value corresponded to treatment with the agonist alone. Compounds were evaluated in triplicate at nine compound concentrations ranging from 50 µM to 1 µM. […]
# washed human platelets [2] = experiment: Thromboxane B2 ELISA assay; type: cell-based; details: different concentrations; thrombin stimulation; Indomethacin 20 µM as comparator
# Procedure: as §1
# The level of TxB2 was measured with an enzyme immunoassay kit (No. 501020; Cayman Chemical, Ann Arbor, MI, USA) as previously described. […] The reactions were terminated by adding 250 µL of HEPES Tyrode’s buffer (pH 7.4) containing 2 mM EDTA. The platelets were centrifuged for 2 min, and the level of TxB2 in the supernatant was measured with the ELISA kit according to the manufacturer’s instructions.
# RhoA = experiment: RhoA-GTP formation, GST-Rhotekin effector pull-down assay in collagen-stimulated platelets; type: cell-based, human; details: R-G04 10 µM or 50 µM, S-G04 3 µM or 20 µM; collagen 1 µg/mL
# Procedure: Next, the ability of the six compounds to suppress RhoA activity in platelets was assessed by subjecting them to a GST (Glutathione-S-transferase)-Rhotekin effector pull-down assay. The compounds were incubated with washed human platelets for 2 min before being stimulated with 1 µg/mL collagen. The analogs inhibited the activation of RhoA at the 20 µM concentration (Figure 2A,B). […] After confirming that these analogs could prevent RhoA activation and the phosphorylation of the MLC, their ability to disrupt complex-formation between RhoA and LARG was tested. […] These findings indicate that the active analogs inhibit RhoA activation by disrupting the binding between RhoA and its GEF.
# (A,B) Washed human platelets were incubated with collagen (1 µg/mL) for 4 min, and the levels of RhoA-GTP formation were quantified with a GST-Rhotekin effector pull-down assay. The platelets were pre-incubated with 20 µM UC-177618, UC-177619, UC-177628, UC-177629, […], or […] for 2 min before being stimulated with collagen. The addition of ice-cold lysis buffer terminated the reaction. […] Relative amounts of the GTP-bound form of RhoA were quantified with densitometry measurements of total RhoA (T-RhoA) and normalized to untreated platelets. (C,D) The addition of 20 µM of active Rhosin-related compounds to washed human platelets 2 min before stimulation with collagen blocked the phosphorylation of the myosin light chain (p-MLC). The reactions were terminated after 4 min by adding 4x Laemmli sample buffer. The samples were processed for Western blotting and probed for MLC and p-MLC, and phosphorylation was quantified by measuring the densitometry of total MLC (T-MLC). The differences between DMSO- and Rhosin-related compounds were analyzed with t-test, and the results are shown as means ± SDs of three independent experiments. (* p < 0.05, ** p < 0.01, *** p < 0.001, and **** p < 0.0001).
# The relative levels of RhoA-GTP in washed human platelets were quantified with effector domains GST-Rhotekin pull-down assays as previously reported. A volume of 250 µL of washed human platelets (2.5 × 10^8/mL) was pre-warmed to 37 °C along with the compounds or DMSO (0.1%) for 2 min before being stimulated with collagen (1 µg/mL). The reactions were terminated 4 min after collagen stimulation by adding ice-cold lysis buffer (20 mM Tris·HCl (pH 7.6), 100 mM NaCl, 1% Triton X-100, 0.2% Sodium Deoxycholate, 10 mM MgCl2, 1 mM dithiothreitol, 1x protease inhibitor cocktail, and 1x phosphatase inhibitor cocktail). The supernatants were collected and subjected to the GST-Rhotekin pull-down assay. The total cell lysates were also blotted in parallel. GTP-bound RhoA was quantitatively detected with Western blotting using an anti-RhoA antibody. The relative amounts of RhoA were quantified with densitometry measurements and normalized to the untreated platelets.
Compound,ATP secretion (washed human platelets [1]),"generation of TxA2, measured as thromboxane B2 (TxB2) (washed human platelets [2])",RhoA-GTP formation (RhoA)
N[C@H](Cc1c[nH]c2ccccc12)C(=O)N/N=C/c1ccc2nccnc2c1 [R-G04],failed to have the same inhibitory effect,dose-dependent inhibition,inhibited RhoA-GTP formation in a concentration-dependent manner
N[C@@H](Cc1c[nH]c2ccccc12)C(=O)N/N=C/c1ccc2nccnc2c1 [S-G04],inhibited ATP secretion,dose-dependent inhibition; also recorded: comparable to that of Indomethacin,inhibited RhoA-GTP formation in a concentration-dependent manner
